What all share (assay type): biochemical
One assay addresses rat nNOS (Rattus norvegicus (Rat), UniProt P29476). The assay can be described thus: NOS inhibition assay, nNOS. The note with it: KM 1.3 μM, Ki = IC50/(1 + [S]/KM).
The target of a further assay is bovine eNOS (Bos taurus (Bovine), UniProt P29473). In words: NOS inhibition assay, eNOS. The note with it: for Ki: bovine eNOS, KM 1.7 μM, Ki = IC50/(1 + [S]/KM); for Selectivity e/n: ratio of Ki (eNOS) to nNOS.
The next assay has as its target murine iNOS (Mus musculus (Mouse), UniProt P29477). In words: NOS inhibition assay, iNOS. To be noted: for Ki: murine iNOS, KM 8.2 μM, Ki = IC50/(1 + [S]/KM); for Selectivity i/n: ratio of Ki (iNOS) to nNOS.

Broadly, the Ki is the dissociation constant of the complex between target and ligand, obtained from inhibition or displacement.

From the text for bovine eNOS: (§1) Nitric oxide formation from NOS was monitored using literature techniques.
From the text for murine iNOS: as §1
From the text for rat nNOS: as §1

On to `Cc1cc(N)nc(COC[C@H]2C[C@H](OCc3cc(C)cc(N)n3)CN2)c1` [Compound 9], for which the Ki at rat nNOS was 0.01 µM. Besides, at bovine eNOS, the Ki is 6.93 µM and the Selectivity e/n was determined as 693. At murine iNOS, the Ki came out at 2.95 µM and the Selectivity i/n is 295.

Consider `Cc1cc(N)nc(COC[C@@H]2C[C@@H](OCc3cc(C)cc(N)n3)CN2)c1` [Compound 6], for which the inhibition constant (Ki) at rat nNOS amounted to 0.026 µM. In addition, on bovine eNOS, the Ki is 2.18 µM and the Selectivity e/n came to 84. Further, at murine iNOS, the Ki was 2.27 µM and the Selectivity i/n turned out to be 87.

With `Cc1cc(N)nc(CO[C@H]2CN[C@H](COCCOCc3cccc(F)c3)C2)c1` [Compound 12], the inhibition constant (Ki) is 0.153 µM on rat nNOS, 7.96 µM at bovine eNOS and 5.86 µM on murine iNOS. On bovine eNOS, the Selectivity e/n came to 52. For the same compound, the Selectivity i/n at murine iNOS turned out to be 38.

With `Cc1cc(N)nc(COc2cccc(OCc3ccncc3)c2)c1` [Compound 2], the inhibition constant Ki worked out at 0.616 µM at rat nNOS, 62.8 µM on bovine eNOS and 27.1 µM at murine iNOS.

For `Cc1cc(N)nc(COc2cccc(OCCCN)c2)c1` [Compound 1], the Ki was determined as 0.06 µM on rat nNOS, 18 µM on bovine eNOS and 8.47 µM on murine iNOS.

In the case of `Cc1cc(N)nc(CO[C@H]2CN[C@@H](COCCOCc3cccc(F)c3)C2)c1` [Compound 13], at rat nNOS, the Ki was 0.33 µM. In addition, on bovine eNOS, the Ki came to 11.7 µM and the Selectivity e/n amounted to 35. Further, at murine iNOS, the Ki is 8.47 µM and the Selectivity i/n worked out at 26.

On to `Cc1cc(N)nc(COCCOC[C@H]2C[C@@H](OCc3cc(C)cc(N)n3)CN2)c1` [Compound 11], for which the Ki on rat nNOS was 0.199 µM. For the same compound, on bovine eNOS, the inhibition constant Ki was 9.3 µM and the Selectivity e/n is given as 46. Also, on murine iNOS, the Ki amounted to 13.6 µM and the Selectivity i/n stood at 68.

With `Cc1cc(N)nc(COc2cccc(OCC3CCNCC3)c2)c1` [Compound 3], the results for the inhibitory constant (Ki) at rat nNOS, on bovine eNOS and on murine iNOS were 0.117 µM, 28 µM and 17.1 µM, respectively.

Turning to `Cc1cc(N)nc(COC[C@H]2C[C@@H](OCc3cc(C)cc(N)n3)CN2)c1` [Compound 7], the inhibition constant Ki on rat nNOS stood at 0.034 µM. Besides, on bovine eNOS, the Ki worked out at 3.47 µM and the Selectivity e/n was 102. Further, at murine iNOS, the inhibitory constant (Ki) was found to be 5.59 µM and the Selectivity i/n stood at 164.

As for `Cc1cc(N)nc(COC[C@@H]2C[C@H](OCc3cc(C)cc(N)n3)CN2)c1` [Compound 8], the Ki at rat nNOS stood at 0.031 µM. Moreover, at bovine eNOS, the Ki turned out to be 2.36 µM and the Selectivity e/n was 76. Further, at murine iNOS, the inhibitory constant (Ki) came out at 1.9 µM and the Selectivity i/n came to 61.

With `Cc1cc(N)nc(COCCOC[C@@H]2C[C@@H](OCc3cc(C)cc(N)n3)CN2)c1` [Compound 10], the Ki at rat nNOS amounted to 0.07 µM. At bovine eNOS, the Ki is 6.25 µM and the Selectivity e/n stood at 89. Besides, at murine iNOS, the Ki stood at 2.32 µM and the Selectivity i/n stood at 33.

For the origin of these results see patent US9732037B2, “2-aminopyridine-based selective neuronal nitric oxide synthase inhibitors” (Northwestern University, priority 2013, dated 2017).
